Assay results taken from PubChem BioAssay (NCI).
Where “and” joins values, the source holds several entries; their conditions need not be identical. Identical values can stand only once.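 Tested at 5 concentrations; 48 h exposure; 96-well plates; endpoints linearly interpolated, else capped at highest concentration. Here, GI50 denotes the concentration required for 50% inhibition of growth. TGI: total growth inhibition.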

Columns and labels:
Assay in all cases: growth of human tumour cells (NCI), 48 h
786-0 renal = tested on: 786-0 renal
A498 renal = tested on: A498 renal
HCT-116 colon = tested on: HCT-116 colon
HCT-15 colon = tested on: HCT-15 colon
HL-60(TB) leukemia = tested on: HL-60(TB) leukemia
HT29 colon = tested on: HT29 colon
LOX IMVI melanoma = tested on: LOX IMVI melanoma
MALME-3M melanoma = tested on: MALME-3M melanoma
SNB-75 CNS = tested on: SNB-75 CNS
TK-10 renal = tested on: TK-10 renal

SMILES	GI50 (786-0 renal)	TGI (786-0 renal)	GI50 (A498 renal)	TGI (A498 renal)	GI50 (HCT-116 colon)	TGI (HCT-116 colon)	GI50 (HCT-15 colon)	TGI (HCT-15 colon)	GI50 (HL-60(TB) leukemia)	TGI (HL-60(TB) leukemia)	GI50 (HT29 colon)	TGI (HT29 colon)	GI50 (LOX IMVI melanoma)	TGI (LOX IMVI melanoma)	GI50 (MALME-3M melanoma)	TGI (MALME-3M melanoma)	GI50 (SNB-75 CNS)	TGI (SNB-75 CNS)	GI50 (TK-10 renal)	TGI (TK-10 renal)
COc1ccc(C2CC(c3ccc(N(C)C)cc3)=NN2c2ccc(S(N)(=O)=O)cc2)cc1 (stereo not drawn)	3.79 µM	20.6 µM	2.15 µM	8.53 µM	2.12 µM	4.77 µM	2.99 µM	> 100 µM	3.99 µM	86.3 µM	3.5 µM	10.7 µM	1.87 µM	4.02 µM	4.12 µM	28.1 µM	5.42 µM	> 100 µM	4.32 µM	35 µM
NC(=O)CC(N)c1nn[nH]n1 (stereo not drawn)	–	> 100 µM	–	> 100 µM	–	> 100 µM	–	> 100 µM	–	> 100 µM	–	> 100 µM	–	> 100 µM	–	> 100 µM	–	> 100 µM	–	> 100 µM
O=S(=O)(O)c1ccc2cc3nn(-c4ccc(/C=C/c5ccc(-n6nc7cc8ccc(S(=O)(=O)O)cc8cc7n6)cc5S(=O)(=O)O)c(S(=O)(=O)O)c4)nc3cc2c1	> 100 µM	> 100 µM	> 100 µM	> 100 µM	23.6 µM	> 100 µM	6.21 µM	> 100 µM	31.9 µM	> 100 µM	59.1 µM	> 100 µM	16.3 µM	> 100 µM	> 100 µM	> 100 µM	> 100 µM	> 100 µM	10.6 µM	> 100 µM
COc1ccc(-c2[nH]c3ccccc3c2/C=C(\C#N)S(=O)(=O)c2ccccc2)cc1	0.844 µM	> 38.3 µM	1.14 µM	> 28.6 µM	0.391 µM	> 38 µM	0.552 µM	> 48 µM	0.287 µM	1.5 µM	0.309 µM	–	1.23 µM	> 100 µM	1.22 µM	> 82 µM	0.375 µM	> 25.9 µM	3.65 µM	> 100 µM
COc1ccc(/C=N\Nc2nc(SCC(C)C)nc(-c3ccc(OC)cc3)c2C#N)cc1	1.86 µM	9.33 µM	2.49 µM	7.14 µM	0.679 µM	15.3 µM	11.7 µM	> 100 µM	> 100 µM	> 100 µM	3.19 µM	20.1 µM	18.2 µM	75.2 µM	10.2 µM	47.9 µM	1.67 µM	8.06 µM	2.02 µM	8.62 µM
Fc1ccc2nc(-c3nc(-c4ccccc4)n4ccccc34)[nH]c2c1	2.23 µM	4.23 µM	2.08 µM	6.46 µM	2 µM	3.82 µM	4.29 µM	27.7 µM	14.9 µM	> 100 µM	3.25 µM	9.15 µM	4.86 µM	20.2 µM	2.06 µM	4.33 µM	2.09 µM	6.87 µM	3.25 µM	6.72 µM
Nc1nc(-c2ccc(Cl)cc2)nc2c1sc(=S)n2-c1ccccc1	1.84 µM	3.62 µM	1.92 µM	5.19 µM	2.94 µM	10.9 µM	4.92 µM	> 100 µM	> 100 µM	> 100 µM	6.09 µM	> 100 µM	2.07 µM	4.91 µM	2.59 µM	5.67 µM	1.73 µM	3.72 µM	2.22 µM	5.9 µM
NCc1ccc(-c2nc(-c3ccc(Cl)c(O)c3)c(-c3ccncc3)[nH]2)cc1	> 25 µM	> 25 µM	> 25 µM	> 25 µM	15.9 µM	> 25 µM	> 25 µM	> 25 µM	15.2 µM	> 25 µM	> 25 µM	> 25 µM	16.7 µM	> 25 µM	2.72 µM	11.2 µM	4.1 µM	> 20 µM	> 25 µM	> 25 µM
CC(=O)N(O)c1ccc(/C=C/c2ccccc2)cc1	0.768 µM	3.46 µM	0.221 µM	0.715 µM	1.12 µM	13.4 µM	2.9 µM	> 100 µM	1.07 µM	> 100 µM	3.39 µM	53.2 µM	1.48 µM	14.6 µM	> 66.6 µM	> 100 µM	0.883 µM	4.59 µM	1.9 µM	5.86 µM
CC1(C)[C@H](O)[C@H](F)C[C@@]2(C)Oc3ccc(C(=O)Nc4ccc5c(c4)NC(=O)C54CCN(CCCCC#N)CC4)cc3C[C@H]12	0.0267 µM	1.8 µM and 4.76 µM	0.0341 µM	0.548 µM	0.149 µM and 1.33 µM	10.7 µM	5.43 µM and 1.59 µM	19.1 µM	0.0583 µM	6.04 µM	1.8 µM and 1.69 µM	6.73 µM	0.0396 µM	2.82 µM and 2.17 µM	0.332 µM and 1.04 µM	3.1 µM and 3.43 µM	0.00679 µM	6.38 µM and 2.2 µM	3.44 µM	14.7 µM
O=[N+]([O-])c1cc(Cc2cc([N+](=O)[O-])c3cccnc3c2O)c(O)c2ncccc12	–	> 54.3 µM	–	31.8 µM	–	16.9 µM	–	66.4 µM	–	5.35 µM	–	> 73.1 µM	–	> 66.2 µM	–	25.5 µM	–	24.9 µM	–	48.3 µM
N#Cc1c(NC(=O)c2ccccc2F)sc2c1CCCC2	> 25 µM	> 25 µM	> 16.7 µM	> 25 µM	> 25 µM	> 25 µM	21.1 µM	> 25 µM	> 25 µM	> 25 µM	10.4 µM	> 25 µM	> 25 µM	> 25 µM	> 25 µM	> 25 µM	> 21.7 µM	> 25 µM	> 25 µM	> 25 µM
C=C1C=CC2(Br)OC3CC(C)(Cl)C(Br)CC13C2(C)C (stereo not drawn)	–	> 100 µM	–	46.5 µM	–	28.5 µM	–	51.3 µM	–	33.9 µM	–	36.5 µM	–	33.8 µM	–	34.5 µM	–	77.7 µM	–	> 100 µM
S=C(NCc1ccc2c(c1)OCO2)N1CCN(c2ncnc3c2oc2ccccc23)CC1	> 100 µM	> 100 µM	4.42 µM	> 100 µM	3.68 µM	> 100 µM	> 100 µM	> 100 µM	4.87 µM	> 95.4 µM	18 µM	> 100 µM	> 100 µM	> 100 µM	> 100 µM	> 100 µM	> 100 µM	> 100 µM	1.12 µM	–
O=c1[nH]c(=S)[nH]c(-c2ccccc2)c1Cc1c(O)ccc2ccccc12	–	> 100 µM	–	44.7 µM	–	74.4 µM	–	> 100 µM	–	50.5 µM	–	> 100 µM	–	> 100 µM	–	> 100 µM	–	65 µM	–	59.3 µM
O=C(c1cc(Cc2n[nH]c(=O)c3ccccc23)ccc1F)N1CCN(C(=O)C2CC2)CC1	> 100 µM	> 100 µM	19 µM and > 55.7 µM	> 100 µM	> 100 µM and 99.1 µM	> 100 µM	> 100 µM	> 100 µM	> 100 µM	> 100 µM	> 100 µM	> 100 µM	18.9 µM and 66.3 µM	> 100 µM	62.4 µM and > 100 µM	> 100 µM	14.9 µM and 18 µM	> 100 µM	> 100 µM and 48.1 µM	> 100 µM
c1ccc(C2CCCCC2)c(OCCCCCN2CCNCC2)c1	1.7 µM	4.27 µM	4.54 µM	20.7 µM	1.65 µM	4.19 µM	1.83 µM	4.05 µM	1.72 µM	3.94 µM	1.6 µM	4.9 µM	1.59 µM	3.01 µM	1.85 µM	3.57 µM	1.32 µM	3.54 µM	5.67 µM	19.3 µM
COc1cc(C(=O)/C=C/c2c(C(F)(F)F)nc3ccccn23)cc(OC)c1OC	1.72 µM	3.42 µM	2.4 µM	5.77 µM	1.26 µM	3.21 µM	2.1 µM	7.57 µM	4.12 µM	> 100 µM	1.93 µM	4.45 µM	1.66 µM	3.77 µM	1.57 µM	3.35 µM	1.76 µM	3.44 µM	2.09 µM	4.33 µM
COCCOCCOCCOCCOC(=O)OC[n+]1ccc(NC(=NCCCCCCOc2ccc(Cl)cc2)NC#N)cc1	10.3 µM	22.9 µM	1.28 µM	15.4 µM	< 0.01 µM	11.8 µM	< 0.01 µM	17.9 µM	3.25 µM	10.7 µM	0.0369 µM	18.2 µM	2.57 µM	20.6 µM	12.1 µM	29.5 µM	14.1 µM	27.9 µM	13.2 µM	26.4 µM
N#C/C(=C\c1cc2ccc(N3CCC3)cc2oc1=O)C(=O)N(CC(=O)O)CC(=O)O	> 100 µM	> 100 µM	> 100 µM	> 100 µM	> 100 µM	> 100 µM	95.5 µM	> 100 µM	> 100 µM	> 100 µM	> 100 µM	> 100 µM	> 100 µM	> 100 µM	> 100 µM	> 100 µM	> 100 µM	> 100 µM	> 100 µM	> 100 µM
